In US8796260B2, “Imidazobenzazepine CGRP receptor antagonists” (Merck Sharp & Dohme Corp., priority 2008, dated 2014):
Ends that are not written are not given here.

What was measured:
[1] = clinical trials (Olesen et al. 2004); cited from earlier work
facial blood flow [2] = details: marmoset, electrical stimulation of the trigeminal ganglion (Doods et al. 2000); cited from earlier work
[3] = system: headache induced by CGRP infusion; details: control group (Petersen et al. 2005); cited from earlier work
[4] = target: T1, CGRP receptors in SK-N-MC cell membranes (Homo sapiens, UniProt O60894+Q16602); experiment: Native receptor binding assay (125I-CGRP, SK-N-MC cell membranes); details: 10 pM 125I-CGRP
T1 construct: receptors in SK-N-MC cell membranes; endogenous in cells; host or cells: SK-N-MC cell membranes
T1 sequence (Q16602 23-461): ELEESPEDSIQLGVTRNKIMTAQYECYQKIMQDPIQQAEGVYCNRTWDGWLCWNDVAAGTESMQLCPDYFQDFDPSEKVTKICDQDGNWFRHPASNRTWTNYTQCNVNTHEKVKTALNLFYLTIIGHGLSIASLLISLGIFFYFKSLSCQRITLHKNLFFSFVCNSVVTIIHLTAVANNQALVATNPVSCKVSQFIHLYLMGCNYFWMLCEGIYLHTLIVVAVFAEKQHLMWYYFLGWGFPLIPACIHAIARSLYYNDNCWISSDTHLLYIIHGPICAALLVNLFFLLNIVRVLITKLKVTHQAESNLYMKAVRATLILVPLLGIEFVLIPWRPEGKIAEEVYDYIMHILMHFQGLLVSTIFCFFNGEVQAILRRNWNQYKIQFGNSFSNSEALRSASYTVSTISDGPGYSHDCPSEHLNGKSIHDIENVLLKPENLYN
T1 sequence (O60894 27-148): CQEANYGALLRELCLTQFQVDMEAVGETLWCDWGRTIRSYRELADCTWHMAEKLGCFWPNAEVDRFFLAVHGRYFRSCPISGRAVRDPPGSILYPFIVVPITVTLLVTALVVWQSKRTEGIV
Description: NATIVE RECEPTOR BINDING ASSAY: The binding of ^125I-CGRP to receptors in SK-N-MC cell membranes was carried out essentially as described (Edvinsson et al. (2001) Eur. J. Pharmacal. 415, 39-44). Briefly, membranes (25 μg) were incubated in 1 mL of binding buffer [10 mM HEPES, pH 7.4, 5 mM MgCl2 and 0.2% bovine serum albumin (BSA)] containing 10 pM ^125I-CGRP and antagonist. After incubation at room temperature for 3 h, the assay was terminated by filtration through GFB glass fibre filter plates (PerkinElmer) that had been blocked with 0.5% polyethyleneimine for 3 h. The filters were washed three times with ice-cold assay buffer (10 mM HEPES, pH 7.4 and 5 mM MgCl2), then the plates were air dried. Scintillation fluid (50 μL) was added and the radioactivity was counted on a Topeount (Packard Instrument). Data analysis was carried out by using Prism and the Ki was determined by using the Cheng-Prusoff equation (Cheng & Prusoff (1973) Biochem. Pharmacol. 22, 3099-3108).

[5] = target: T2, recombinant human CL receptor/RAMP1 (Homo sapiens, UniProt O60894+Q16602); experiment: Recombinant receptor functional assay (cAMP after human α-CGRP stimulation); format: cell-based; details: HEK 293 cells, 0.3 nM human α-CGRP
T2 construct: expressed in transfected cells
T2 sequence (Q16602 23-461): as the sequence (Q16602 23-461) above
T2 sequence (O60894 27-148): as the sequence (O60894 27-148) above
Description: (§1) RECOMBINANT RECEPTOR: Human CL receptor (Genbank accession number L76380) was subcloned into the expression vector pIREShyg2 (BD Biosciences Clontech) as a 5′NheI and 3′ PmeI fragment. Human RAMP I (Genbank accession number AJ001014) was subcloned into the expression vector pIRESpuro2 (BD Biosciences Clontech) as a 5′NheI and 3′NotI fragment. HEK 293 cells (human embryonic kidney cells; ATCC #CRL-1573) were cultured in DMEM with 4.5 g/L glucose, 1 mM sodium pyruvate and 2 mM glutamine supplemented with 10% fetal bovine serum (FBS), 100 units/mL penicillin and 100 μg/mL streptomycin, and maintained at 37° C. and 95% humidity. Cells were subcultured by treatment with 0.25% trypsin with 0.1% EDTA in HBSS. Stable cell line generation was accomplished by co-transfecting 10 μg of DNA with 30 μg Lipofectamine 2000 (Invitrogen) in 75 cm^2 flasks. CL receptor and RAMP I expression constructs were co-transfected in equal amounts. […]
RECOMBINANT RECEPTOR FUNCTIONAL ASSAY: Cells were plated in complete growth medium at 85,000 cells/well in 96-well poly-D-lysine coated plates (Corning) and cultured for ˜19 h before assay. […] Dose response curves were plotted and IC50 values determined from a 4-parameter logistic fit as defined by the equation y=((a−d)/(1+(x/c)^b)+d, where y=response, x=dose, a=max response, d=min response, c=inflection point and b=slope.

[6] = target: T2, recombinant human CL receptor/RAMP1; experiment: Recombinant receptor binding assay (125I-hCGRP); details: recombinant human CL receptor/RAMP1 membranes, 10 pM 125I-hCGRP
Description: as §1, with “amounts. Twenty-four hours after transfection the cells were diluted and selective medium (growth medium+300 μg/mL hygromycin and 1 μg/mL puromycin) was added the following day. A clonal cell line was generated by single cell deposition utilizing a FACS Vantage SE (Becton Dickinson). Growth medium was adjusted to 150 μg/mL hygromycin and 0.5 μg/mL puromycin for cell propagation.” for “amounts.”

[7] = system: diameter of the middle meningeal artery; details: rats, electrical stimulation of the dura mater, prior administration (Williamson et al. 1997); cited from earlier work
facial blood flow [8] = details: rat, trigeminal ganglion stimulation (Escott et al. 1995); cited from earlier work

NCCCC[C@H](NC(=O)[C@@H](Cc1cc(Br)c(O)c(Br)c1)NC(=O)N1CCC(N2Cc3ccccc3NC2=O)CC1)C(=O)N1CCN(c2ccncc2)CC1 [BIBN4096BS]
treating acute attacks of migraine [1]: effective
effect on increase in facial blood flow (facial blood flow [2]): could be blocked
prevention of headache induced by CGRP infusion [3]: able to prevent headache

CC(C)(O)c1cnc2n1Cc1c(cc(Cl)c3[nH]ncc13)C[C@H]2NC(=O)c1ccc2c(c1)CC1(C2)C(=O)Nc2ncccc21 (stereo partly drawn) [Example 4, N-[(7R)-4-chloro-10-(1-hydroxy-1-methylethyl)-3,6,7,12-tetrahydroimidazo[1′,2′:1,7]azepino[3,4-e]indazol-7-yl]-2′-oxo-1,1′,2′,3-tetrahydrospiro[indene-2,3′-pyrrolo[2,3-b]pyridine]-5-carboxamide]
Ki [4]: < 1000 nM
IC50 [5]: < 1000 nM
Ki [6]: < 1000 nM

CGRP(8-37): a peptide CGRP antagonist; fragment of CGRP that lacks seven N-terminal amino acid residues (VTHRLAGLLSRSGGVVKNNFVPTNVGSKAF; ends and bridges not checked; UniProt P06881 90-119, looked up, fragment)
effect on increased diameter of the middle meningeal artery [7]: blocked
effect on increased facial blood flow (facial blood flow [8]): inhibited
